# Test results from ChEMBL document CHEMBL1201862, “PubChem BioAssay data set” (2004).
#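 Exposure lasted 48 hours, with cells grown in 96-well plates and compounds tested at five concentrations. The concentration for 50% growth inhibition is given as GI50.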 Active and inactive are the calls of the source. No stated cut-off is given here; in the data, active = GI50 up to about 1.1 µM and inactive = higher.
# Columns and labels:
# Experiment in all cases: inhibition of tumour cell growth, NCI panel, 48 h
# SW-620 = test system: SW-620
# RXF 393 = test system: RXF 393
# CAKI-1 = test system: CAKI-1
# T47D = test system: T47D
# LOX IMVI = test system: LOX IMVI
# SK-MEL-2 = test system: SK-MEL-2
# HCC 2998 = test system: HCC 2998
# EKVX = test system: EKVX
# U-251 = test system: U-251
# HOP-92 = test system: HOP-92
# M14 = test system: M14
# UACC-257 = test system: UACC-257
# NCI-H460 = test system: NCI-H460
# Malme-3M = test system: Malme-3M
# DU-145 = test system: DU-145
# MDA-MB-231 = test system: MDA-MB-231
# SK-OV-3 = test system: SK-OV-3
# K562 = test system: K562
# SF-295 = test system: SF-295
# SF-268 = test system: SF-268
# TK-10 = test system: TK-10
# NCI/ADR-RES = test system: NCI/ADR-RES
# NCI-H226 = test system: NCI-H226
# MCF7 = test system: MCF7
# MDA-MB-435 = test system: MDA-MB-435
# PC-3 = test system: PC-3
# A498 = test system: A498
# SK-MEL-28 = test system: SK-MEL-28
# UO-31 = test system: UO-31
# HOP-62 = test system: HOP-62
# COLO 205 = test system: COLO 205
# HL-60 = test system: HL-60
# BT-549 = test system: BT-549
# Hs-578T = test system: Hs-578T
# A549 = test system: A549
# HCT-116 = test system: HCT-116
# SK-MEL-5 = test system: SK-MEL-5
# OVCAR-3 = test system: OVCAR-3
# HT-29 = test system: HT-29
# 786-0 = test system: 786-0
# NCI-H23 = test system: NCI-H23
# MOLT-4 = test system: MOLT-4
# OVCAR-5 = test system: OVCAR-5
# MDA-N = test system: MDA-N
# NCI-H522 = test system: NCI-H522
# ACHN = test system: ACHN
# UACC-62 = test system: UACC-62
# HCT-15 = test system: HCT-15
# OVCAR-8 = test system: OVCAR-8
# IGROV-1 = test system: IGROV-1
# SF-539 = test system: SF-539
# CCRF-CEM = test system: CCRF-CEM
# SN12C = test system: SN12C
# RPMI-8226 = test system: RPMI-8226
# SNB-75 = test system: SNB-75
# OVCAR-4 = test system: OVCAR-4
# SR = test system: SR
# KM12 = test system: KM12
# SNB-19 = test system: SNB-19
# M19-MEL = test system: M19-MEL
# DMS-273 = test system: DMS-273
# KM-20L2 = test system: KM-20L2
# DMS-114 = test system: DMS-114
# DLD-1 = test system: DLD-1
# LXFL 529 = test system: LXFL 529
compound,measurement,setting,value
COc1cccc(C2c3cc4c(cc3OC(Nc3ccccc3)C2C)OCO4)c1O (stereo not given),GI50,SW-620,4.88 µM (inactive)
same,GI50,RXF 393,5.05 µM (inactive)
same,GI50,CAKI-1,13.5 µM (inactive)
same,GI50,T47D,12.7 µM (inactive)
same,GI50,LOX IMVI,5.21 µM (inactive)
same,GI50,SK-MEL-2,13.9 µM (inactive)
same,GI50,HCC 2998,11.7 µM (inactive)
same,GI50,EKVX,11.1 µM (inactive)
same,GI50,U-251,5.7 µM (inactive)
same,GI50,HOP-92,2.48 µM (inactive)
same,GI50,M14,3.84 µM (inactive)
same,GI50,UACC-257,10.9 µM (inactive)
same,GI50,NCI-H460,4.97 µM (inactive)
same,GI50,Malme-3M,7.24 µM (inactive)
same,GI50,DU-145,15.4 µM (inactive)
same,GI50,MDA-MB-231,12.7 µM (inactive)
same,GI50,SK-OV-3,10.3 µM (inactive)
same,GI50,K562,2.83 µM (inactive)
same,GI50,SF-295,5.25 µM (inactive)
same,GI50,SF-268,12.2 µM (inactive)
same,GI50,TK-10,15.8 µM (inactive)
same,GI50,NCI/ADR-RES,7.5 µM (inactive)
same,GI50,NCI-H226,12 µM (inactive)
same,GI50,MCF7,6.68 µM (inactive)
same,GI50,MDA-MB-435,2.15 µM (inactive)
same,GI50,PC-3,4.14 µM (inactive)
same,GI50,A498,7.82 µM (inactive)
same,GI50,SK-MEL-28,7.21 µM (inactive)
same,GI50,UO-31,7.06 µM (inactive)
same,GI50,HOP-62,12.9 µM (inactive)
same,GI50,COLO 205,4.3 µM (inactive)
same,GI50,HL-60,9.93 µM (inactive)
same,GI50,BT-549,10.6 µM (inactive)
same,GI50,Hs-578T,5.81 µM (inactive)
same,GI50,A549,4.95 µM (inactive)
same,GI50,HCT-116,7.6 µM (inactive)
same,GI50,SK-MEL-5,5.12 µM (inactive)
same,GI50,OVCAR-3,9.18 µM (inactive)
same,GI50,HT-29,5.74 µM (inactive)
same,GI50,786-0,9.08 µM (inactive)
same,GI50,NCI-H23,8.26 µM (inactive)
same,GI50,MOLT-4,3.3 µM (inactive)
same,GI50,OVCAR-5,30.1 µM (inactive)
same,GI50,MDA-N,2.42 µM (inactive)
same,GI50,NCI-H522,4.4 µM (inactive)
same,GI50,ACHN,10.9 µM (inactive)
same,GI50,UACC-62,9.02 µM (inactive)
same,GI50,HCT-15,5.62 µM
same,GI50,OVCAR-8,12.9 µM (inactive)
same,GI50,IGROV-1,8.95 µM (inactive)
same,GI50,SF-539,4.07 µM (inactive)
same,GI50,CCRF-CEM,2.58 µM (inactive)
same,GI50,SN12C,8.83 µM (inactive)
same,GI50,RPMI-8226,6.43 µM (inactive)
same,GI50,SNB-75,5.6 µM (inactive)
same,GI50,OVCAR-4,36.3 µM (inactive)
same,GI50,SR,3.66 µM (inactive)
same,GI50,KM12,4.63 µM (inactive)
same,GI50,SNB-19,15.2 µM (inactive)
COP(=O)(OC)/C(=N\Nc1ccc([N+](=O)[O-])cc1)NCc1ccccc1,GI50,SW-620,35.6 µM (inactive)
same,GI50,CAKI-1,38.6 µM (inactive)
same,GI50,SK-MEL-2,23 µM (inactive)
same,GI50,HCC 2998,62.5 µM (inactive)
same,GI50,U-251,23.4 µM (inactive)
same,GI50,HOP-92,18.8 µM (inactive)
same,GI50,M19-MEL,37.3 µM (inactive)
same,GI50,M14,21.4 µM (inactive)
same,GI50,UACC-257,21.8 µM (inactive)
same,GI50,NCI-H460,27.8 µM (inactive)
same,GI50,Malme-3M,38.5 µM (inactive)
same,GI50,K562,27.5 µM (inactive)
same,GI50,SF-295,25.8 µM (inactive)
same,GI50,SF-268,23.7 µM (inactive)
same,GI50,TK-10,30 µM (inactive)
same,GI50,DMS-273,36.3 µM (inactive)
same,GI50,KM-20L2,30.1 µM (inactive)
same,GI50,SK-MEL-28,30.8 µM (inactive)
same,GI50,HOP-62,23.6 µM (inactive)
same,GI50,DMS-114,21.4 µM (inactive)
same,GI50,COLO 205,46.3 µM (inactive)
same,GI50,HL-60,21.2 µM (inactive)
same,GI50,A549,31.3 µM (inactive)
same,GI50,HCT-116,21 µM (inactive)
same,GI50,SK-MEL-5,17.5 µM (inactive)
same,GI50,OVCAR-3,33.4 µM (inactive)
same,GI50,HT-29,43.3 µM (inactive)
same,GI50,786-0,34.3 µM (inactive)
same,GI50,NCI-H23,18.9 µM (inactive)
same,GI50,MOLT-4,25.8 µM (inactive)
same,GI50,DLD-1,33.3 µM (inactive)
same,GI50,OVCAR-5,40.3 µM (inactive)
same,GI50,NCI-H522,13.4 µM (inactive)
same,GI50,ACHN,28 µM (inactive)
same,GI50,UACC-62,28 µM (inactive)
same,GI50,HCT-15,32.4 µM
same,GI50,OVCAR-8,30.5 µM (inactive)
same,GI50,IGROV-1,30.8 µM (inactive)
same,GI50,SF-539,17.7 µM (inactive)
same,GI50,CCRF-CEM,20.6 µM (inactive)
same,GI50,RPMI-8226,19.2 µM (inactive)
same,GI50,SNB-75,11.2 µM (inactive)
same,GI50,OVCAR-4,24.5 µM (inactive)
same,GI50,LXFL 529,31.8 µM (inactive)
same,GI50,SR,20.3 µM (inactive)
same,GI50,KM12,24.5 µM (inactive)
CN1C(=O)C(Cl)(C(Cl)(Cl)S(=O)(=O)O)C(=O)c2ccccc21.c1ccncc1 (stereo not given),GI50,SW-620,> 100 µM (inactive)
same,GI50,RXF 393,53.7 µM (inactive)
same,GI50,CAKI-1,> 100 µM (inactive)
same,GI50,LOX IMVI,> 100 µM (inactive)
same,GI50,HCC 2998,> 100 µM (inactive)
same,GI50,EKVX,> 100 µM (inactive)
same,GI50,U-251,> 100 µM (inactive)
same,GI50,HOP-92,> 100 µM (inactive)
same,GI50,M19-MEL,> 100 µM (inactive)
same,GI50,M14,> 100 µM (inactive)
same,GI50,UACC-257,> 100 µM (inactive)
same,GI50,NCI-H460,> 100 µM (inactive)
same,GI50,Malme-3M,33.2 µM (inactive)
same,GI50,SK-OV-3,> 100 µM (inactive)
same,GI50,K562,> 100 µM (inactive)
same,GI50,SF-295,> 100 µM (inactive)
same,GI50,SF-268,> 100 µM (inactive)
same,GI50,TK-10,> 100 µM (inactive)
same,GI50,NCI-H226,33.7 µM (inactive)
same,GI50,KM-20L2,19.5 µM (inactive)
same,GI50,A498,> 100 µM (inactive)
same,GI50,SK-MEL-28,> 100 µM (inactive)
same,GI50,UO-31,91.2 µM (inactive)
same,GI50,HOP-62,> 100 µM (inactive)
same,GI50,COLO 205,> 100 µM (inactive)
same,GI50,HL-60,> 100 µM (inactive)
same,GI50,A549,> 100 µM (inactive)
same,GI50,HCT-116,> 100 µM (inactive)
same,GI50,SK-MEL-5,> 100 µM (inactive)
same,GI50,OVCAR-3,> 100 µM (inactive)
same,GI50,HT-29,25.7 µM (inactive)
same,GI50,786-0,> 100 µM (inactive)
same,GI50,NCI-H23,> 100 µM (inactive)
same,GI50,MOLT-4,> 100 µM (inactive)
same,GI50,DLD-1,> 100 µM (inactive)
same,GI50,NCI-H522,44.9 µM (inactive)
same,GI50,ACHN,76.4 µM (inactive)
same,GI50,UACC-62,> 100 µM (inactive)
same,GI50,OVCAR-8,> 100 µM (inactive)
same,GI50,IGROV-1,> 100 µM (inactive)
same,GI50,SF-539,> 100 µM (inactive)
same,GI50,CCRF-CEM,> 100 µM (inactive)
same,GI50,SN12C,> 100 µM (inactive)
same,GI50,RPMI-8226,> 100 µM (inactive)
same,GI50,SNB-75,54.2 µM (inactive)
same,GI50,OVCAR-4,> 100 µM (inactive)
same,GI50,LXFL 529,> 100 µM (inactive)
same,GI50,SR,> 100 µM (inactive)
same,GI50,KM12,> 100 µM (inactive)
same,GI50,SNB-19,> 100 µM (inactive)
